Results reported in article PMC5048394, “Development and substrate specificity screening of an in vivo biosensor for the detection of biomass derived aromatic chemical building blocks” (Chemical Communications (Cambridge, England), 2016).

Test system: PLC biosensor
Experiment: microbe, parasite or virus in culture
Format: cell-based, E. coli BL21
Details: for EC10: BL21; for Emax: BL21, read-out: Induction; for maximal fold induction: BL21, read-out: Signal range (max/min), substrate screening, PLC biosensor, E. coli BL21; for EC50 / EC90 / Induction / Sensing range (predicted) / Change in potency relative to sinapic acid (4) / Activity against the FerC biosensor: PLC biosensor; for EC50 / EC90 / Change in potency relative to sinapic acid (4) / Activity against the FerC biosensor: E. coli BL21; for Induction: E. coli BL21, 0.32–1000 μM; for Sensing range (predicted): E. coli BL21, text; for Output signal / efficacy: relative to the PLC biosensor response curve with ferulic acid
Protocol: Cells were centrifuged, washed and re-suspended with PBS buffer. The expression output was then analyzed by monitoring the fluorescence normalised to cell density (RFU/OD600) in a multimode plate reader (Methods, ESI ^†).
The sequences containing the PLC, PPC and PferB promoters, a RBS, and a Hexa-Histidine tag, flanked by SphI/NdeI were synthetized (GeneART, ThermoFisher). The sequences were enzyme restricted with SphI/NdeI and cloned in pET44eGFP,2 upstream to the eGFP gene, replacing the T7 promoter region generating respectively, the pET44PLCeGFP, pET44PPCeGFP and pET44PferBeGFP vectors.
The FerCA DNA sequence containing the ferA and ferC genes, individually flanked by a PLacI promoter and an rrn_B1 terminator, was synthetized by GeneARTTM (ThermoFisher).
The construct was cloned in a p15 plasmid flanked by NaeI/KasI restriction sites generating […]
the p15FerCA vector. […]
Biosensors Performance and Screening Methods
Reporter controls and the biosensor systems PLC, PPC and PferB were respectively generated by transformation of pET44PLCeGFP, pET44PPCeGFP and pET44PFerBeGFP vectors alone or with p15FerCA in BL21 and DH10B chemically competent E. coli cells. A single colony of each system was grown in LB media supplemented with antibiotics at 37 °C with shaking at 180rpm for 16 hours. Cultures were diluted (1:100) in fresh LB media with appropriate antibiotics, re-incubated at 37 °C with shaking until OD ~0.6 and transferred (450 μL) to multi- […]
μM and 1000 μM. Induction plates were incubated at 37 °C, with shaking at 1000 RPM (Stuart microtitre plate shaker incubator) for 3 hours. Cells were harvested by centrifugation, washed twice and re-suspended with PBS buffer. Expression output was analyzed by monitoring the fluorescence normalised to cell density (RFU/OD) in a multimode plate reader. […]
Compounds for screening were selected using cinnamic acid as a reference structure. The 58 selected compounds were tested with the PLC biosensor in E. coli BL21 cells. The substrate screening assays were performed using concentrations ranging from 0.32 μM to 1000 μM, as described for Ferulic acid. […]
Data Processing and Curve Fitting
Biosensor signal output (eGFP expression) was measured as Relative Fluorescence Units (RFU) and normalised to cell density (OD600). The background auto-fluorescence of E. coli was subtracted from RFU/OD and was normalised (%) to the pLC biosensor response curve to ferulic acid for each experiment. The normalised data was plotted and fitted with a dose-response curve using the Levenberg Marquardt logistic growth/sigmoidal algorithm, using the Origin 2015 (OriginLab, Northampton MA USA) program. The biomass screening data was […]

[1] = Escherichia coli, BL21, substrate screening

SMILES	EC10 (Escherichia coli) [µM]	Emax (Escherichia coli) [%]	maximal fold induction (Escherichia coli)	EC50 [1] [µM]	EC90 [1] [µM]	Induction (substrate screening)	EC50 (substrate screening) [µM]	Sensing range (predicted) (substrate screening) [fold]	Change in potency relative to sinapic acid (4) (substrate screening) [fold]	Output signal / efficacy (substrate screening) [%]	Activity against the FerC biosensor (substrate screening)
O=C(O)C=Cc1ccc(O)cc1 [compound 2, p-Coumaric acid]	3.9	> 70	25	26.1 ± 3.8	174	H (high output signals, and hence good efficacy (>70%))	–	–	–	–	–
Nc1ccc(C=CC(=O)O)cc1 [compound 3, 3-(4-Aminophenyl)-2-propenoic acid]	12	> 70	28.1	110 ± 25.7	1010	H (high output signals, and hence good efficacy (>70%))	–	–	–	–	–
COc1cc(/C=C/C(=O)O)cc(OC)c1O [compound 4, Sinapic acid]	19.8	> 70	15.4	> 200	4990	H (high output signals, and hence good efficacy (>70%))	314 ± 55.8	225	–	–	–
COc1ccc(C=CC(=O)O)cc1O [compound 5, 3-Hydroxy-4-methoxycinnamic acid]	36.3	> 70	33.5	> 200	1510	H (high output signals, and hence good efficacy (>70%))	234 ± 15.4	–	–	–	–
COc1cc(C=CC(=O)O)cc(O)c1O [compound 6, 3,4-Dihydroxy-5-methoxycinnamic acid]	33.9	40 to 60	14.8	746 ± 118	16400	M (moderate signal (60–40%))	–	485	2.5	–	–
O=C(O)C=Cc1ccc(O)cc1O [compound 7, 2,4-Dihydroxycinnamic acid]	131	40 to 60	9.6	823 ± 45.6	5170	M (moderate signal (60–40%))	–	–	–	–	–
COc1ccc(C=CC(=O)O)cc1OC [compound 8, 3,4-Dimethoxycinnamic acid]	228	40 to 60	11.4	825 ± 13.2	2990	M (moderate signal (60–40%))	–	–	–	–	–
O=C(O)/C=C/c1ccc(O)c(O)c1 [compound 9, Caffeic acid]	222	40 to 60	11.2	1180 ± 88.5	6250	M (moderate signal (60–40%))	–	–	–	–	–
O=C(O)C=Cc1ccc([N+](=O)[O-])cc1 [compound 10, 4-Nitrocinnamic acid]	158	40 to 60	9.5	1560 ± 96.8	15500	M (moderate signal (60–40%))	–	–	–	–	–
COc1cc(C=CC(=O)O)cc(OC)c1OC [compound 11, 3,4,5-Trimethoxycinnamic acid]	378	< 40	6.7	> 2000	14800	L (low signals (<40%))	2360 ± 265	–	8	< 40	–
COc1cc(CCC(=O)O)ccc1O [compound 12, 3-(4-Hydroxy-3-methoxyphenyl)propionic acid]	702	< 40	3.3	–	31300	L (low signals (<40%))	–	–	–	< 40	low activity
COc1cccc(C=CC(=O)O)c1 [compound 13, 3-Methoxycinnamic acid]	816	< 40	4.8	–	–	L (low signals (<40%))	–	–	–	< 40	–
O=C(O)/C=C/c1ccccc1 [compound 14, cinnamic acid]	–	–	–	–	–	–	–	–	–	–	no activity
Cc1ccc(C=CC(=O)O)cc1 [compound 29, 4-methylcinnamic acid]	–	–	–	–	–	–	–	–	–	–	devoid of activity
